Experimental data published in US9604982B2, “P2X7 modulators” (Janssen Pharmaceutica NV, priority 2013, dated 2017).

Target: P2X7 (Homo sapiens (Human), UniProt Q99572)
Assay: P2X7 antagonism in human peripheral blood mononuclear cells (PBMCs), IL-1β release after LPS + Bz-ATP (ELISA)
Format: cell-based
Settings: 0.5 mM Bz-ATP; for remaining activity at 10 µM: P2X7, Table 2, 10 μM compound, read-out: PBMC 10 μM (% control); for PBMC 10 μM (% control): Table 3 (additional runs), 10 μM compound
Procedure: Human blood was collected using a blood donor program. […] Cells were incubated for an additional 1.5 hours. […] Data are analyzed and graphed on Graphpad Prism 5. […] The IC50 for each compound is then uploaded into 3DX.

P2X7, sequence (Q99572 whole entry): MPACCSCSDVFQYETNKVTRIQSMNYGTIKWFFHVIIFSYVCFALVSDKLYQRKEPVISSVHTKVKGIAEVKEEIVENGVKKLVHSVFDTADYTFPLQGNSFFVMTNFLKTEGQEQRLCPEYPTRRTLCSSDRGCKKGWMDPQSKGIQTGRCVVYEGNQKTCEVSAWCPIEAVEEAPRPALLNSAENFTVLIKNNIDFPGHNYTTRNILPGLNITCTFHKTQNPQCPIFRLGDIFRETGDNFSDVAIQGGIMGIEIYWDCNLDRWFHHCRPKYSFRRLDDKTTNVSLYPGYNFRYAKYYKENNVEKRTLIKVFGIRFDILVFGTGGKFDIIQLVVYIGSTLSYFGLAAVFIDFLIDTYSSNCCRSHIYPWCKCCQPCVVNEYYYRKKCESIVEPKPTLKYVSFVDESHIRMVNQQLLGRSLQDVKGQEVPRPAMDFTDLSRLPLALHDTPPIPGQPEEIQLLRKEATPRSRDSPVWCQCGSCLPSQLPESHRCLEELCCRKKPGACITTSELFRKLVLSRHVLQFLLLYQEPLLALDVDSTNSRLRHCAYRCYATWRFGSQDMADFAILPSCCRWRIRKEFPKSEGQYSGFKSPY

| remaining activity at 10 µM | PBMC 10 μM (% control) | Compound |
| --- | --- | --- |
| -19.2% | – | Cc1nc2c(c(-c3ccn[nH]3)n1)C[C@H](C)N(C(=O)c1ccc(F)cc1F)C2 (single isomer, unassigned) [Example 95, (S*)-(2,4-difluorophenyl)(2,6-dimethyl-4-(1H-pyrazol-5-yl)-5,6-dihydropyrido[3,4-d]pyrimidin-7(8H)-yl)methanone] |
| 16.4% | – | CCc1nc2c(c(-c3ccn[nH]3)n1)C[C@@H](C)N(C(=O)c1cccc(C(F)(F)F)c1Cl)C2 (single isomer, unassigned) [Example 99, (R*)-(2-chloro-3-(trifluoromethyl)phenyl)(2-ethyl-6-methyl-4-(1H-pyrazol-5-yl)-5,6-dihydropyrido[3,4-d]pyrimidin-7(8H)-yl)methanone] |
| 4% | 4.0 % control | CCc1nc2c(c(-c3ccn[nH]3)n1)C[C@H](C)N(C(=O)c1cccc(C(F)(F)F)c1Cl)C2 (single isomer, unassigned) [Example 100, (S*)-(2-chloro-3-(trifluoromethyl)phenyl)(2-ethyl-6-methyl-4-(1H-pyrazol-5-yl)-5,6-dihydropyrido[3,4-d]pyrimidin-7(8H)-yl)methanone] |
| 11.7% | – | CC(C)c1nc2c(c(-c3ccn[nH]3)n1)C[C@@H](C)N(C(=O)c1cccc(C(F)(F)F)c1Cl)C2 (single isomer, unassigned) [Example 102, (R*)-(2-chloro-3-(trifluoromethyl)phenyl)(2-isopropyl-6-methyl-4-(1H-pyrazol-5-yl)-5,6-dihydropyrido[3,4-d]pyrimidin-7(8H)-yl)methanone] |
| 6.3% | 6.3 % control | CC(C)c1nc2c(c(-c3ccn[nH]3)n1)C[C@H](C)N(C(=O)c1cccc(C(F)(F)F)c1Cl)C2 (single isomer, unassigned) [Example 103, (S*)-(2-chloro-3-(trifluoromethyl)phenyl)(2-isopropyl-6-methyl-4-(1H-pyrazol-5-yl)-5,6-dihydropyrido[3,4-d]pyrimidin-7(8H)-yl)methanone] |
| -2.1% | −2.1 % control | C[C@@H]1c2ncnc(-c3ccn[nH]3)c2CCN1C(=O)c1cccc(C(F)(F)F)c1Cl (single isomer, unassigned) [Example 113, (R*)-(2-chloro-3-(trifluoromethyl)phenyl)(8-methyl-4-(1H-pyrazol-5-yl)-5,6-dihydropyrido[3,4-d]pyrimidin-7(8H)-yl)methanone] |
| -0.5% | −0.5 % control | C[C@H]1c2ncnc(-c3ccn[nH]3)c2CCN1C(=O)c1cccc(C(F)(F)F)c1Cl (single isomer, unassigned) [Example 114, (S*)-(2-chloro-3-(trifluoromethyl)phenyl)(8-methyl-4-(1H-pyrazol-5-yl)-5,6-dihydropyrido[3,4-d]pyrimidin-7(8H)-yl)methanone] |
| -4.4% | −4.4 % control | C[C@@H]1c2ncnc(-c3ccn[nH]3)c2CCN1C(=O)c1ccc(F)c(C(F)(F)F)c1Cl (single isomer, unassigned) [Example 116, (R*)-(2-chloro-4-fluoro-3-(trifluoromethyl)phenyl)(8-methyl-4-(1H-pyrazol-5-yl)-5,6-dihydropyrido[3,4-d]pyrimidin-7(8H)-yl)methanone] |
| 0.1% | 0.1 % control | C[C@H]1c2ncnc(-c3ccn[nH]3)c2CCN1C(=O)c1ccc(F)c(C(F)(F)F)c1Cl (single isomer, unassigned) [Example 117, (S*)-(2-chloro-4-fluoro-3-(trifluoromethyl)phenyl)(8-methyl-4-(1H-pyrazol-5-yl)-5,6-dihydropyrido[3,4-d]pyrimidin-7(8H)-yl)methanone] |
